In paper PMC9014415, “Repositioning of a Diaminothiazole Series Confirmed to Target the Cyclin-Dependent Kinase CRK12 for Use in the Treatment of African Animal Trypanosomiasis” (Journal of Medicinal Chemistry, 2022):
In brackets after ≈: the same amount, converted by molar mass.

Columns and labels:
T. congolense = experiment: Microcalorimetry of parasite growth; format: cell-based, Trypanosoma congolense
Method: These observations offer confidence that rats can be used as a model animal in the drug development path going forward prior to studies in cattle. Exposure following IM injection in rats was sufficient to warrant progression to cattle efficacy studies, although the short half-life raised concerns that the required time above the EC99 blood concentration may not be sufficient for cure following a single IM dose at 10 mg/kg.

[1] = Solubility of compound 1 in PBS pH 7.4 (filtration, UHPLC); format: physicochemical; settings: phosphate buffered saline; aqueous; PBS pH 7.4, 24 h mixing, UHPLC (method used for compound 1)
Method: software. All experiments were conducted with technical duplicates and at least three biological […]
1.4 Cytotoxicity assays – Rat skeletal myoblasts (L6)
The cytotoxicity of test compounds was evaluated using a rat skeletal myoblast (L6) cell line, as previously described3, but with minor modifications. Cells were grown in RPMI media supplemented with 10% (v/v) fetal calf serum. L6 cells at a seeding density of 2 x 10^4 cells/mL were incubated in microtiter plates overnight at 37 °C and 5 % CO2 until adherent. The following day, test compounds were added to the plates (3-fold serial dilutions), prior to incubation for 69 h. […] The plates were read using a SpectraMax (Gemini XS) fluorescence reader at an excitation wavelength of 536 nm and an emission wavelength of 588 nm. EC50 values were determined using SOFTmax Pro 5.2 analysis software. […]
The aqueous solubility of test compounds was measured using laser nephelometry. […] Triplicate aliquots were transferred to a flat-bottomed polystyrene plate which was immediately read on a NEPHELOstar nephelometer (BMG Lab Technologies). […]
Solubility of compound 1 was measured by a different method. […]
solution was then mixed for 24 h (rotary mixing, 900 rpm, 25°C) excluding light. […] The resulting filtrate was analysed for dissolved compound 1 using a truncated UHPLC methodology. […]

[2] = Ames test for potential genotoxicity

Compound | Effect on parasites, microcalorimetry (T. congolense; 10 ng/mL) | Effect on parasites, microcalorimetry (T. congolense; 30 ng/mL) | Effect on parasites, microcalorimetry (T. congolense; 100 ng/mL) | solubility at 24 h [1] [µM] | Ames [2]
CC(C)CS(=O)(=O)N[C@H]1CC[C@H](Nc2nc(N)c(C(=O)c3c(F)cc(CN(C)C)cc3F)s2)CC1 [Compound 2, N-(trans)-[4-[[4-Amino-5-[4-(dimethylaminomethyl)-2,6-difluoro-benzoyl]thiazol-2-yl]amino]cyclohexyl]-2-methyl-propane-1-sulfonamide] | slowed parasite growth | rapid kill | rapid kill | – | –
CC(C)CS(=O)(=O)N[C@H]1CC[C@H](Nc2nc(N)c(C(=O)c3c(F)cccc3F)s2)CC1 [Compound 1, N-((trans)-4-((4-Amino-5-(2,6-difluorobenzoyl)thiazol-2-yl)amino)cyclohexyl)-2-methylpropane-1-sulfonamide] | – | – | – | 105 (≈ 49.6 µg/mL) | negative
